How the values were obtained:
LEFCH = test: Postemergence foliar-applied greenhouse weed control, LEFCH; assay type: in vivo, Leptochloa chinensis (L.) Nees
From the text: (§1) Seeds or nutlets of the desired test plant species were planted in a soil matrix prepared by mixing a loam or sandy loam soil (e.g., 28.6 percent silt, 18.8 percent clay, and 52.6 percent sand, with a pH of about 5.8 and an organic matter content of about 1.8 percent) and calcareous grit in an 80 to 20 ratio. The soil matrix was contained in plastic pots with a volume of 1 quart and a surface area of 83.6 square centimeters (cm^2). When required to ensure good germination and healthy plants, a fungicide treatment and/or other chemical or physical treatment was applied. The plants were grown for 8-22 days in a greenhouse with an approximate 14 h photoperiod which was maintained at about 29° C. during the day and 26° C. during the night. Nutrients (Peters Excel® 15-5-15 5-Ca 2-Mg and iron chelate) were applied in the irrigation solution as needed and water was added on a regular basis. Supplemental lighting was provided with overhead metal halide 1000-Watt lamps as necessary. The plants were employed for testing when they reached the first through fourth true leaf stage.
(§2) Treatments consisted of the acid or esters of 4-amino-3-chloro-5-fluoro-6-(4-chloro-2-fluoro-3-methoxy-phenyl) pyridine-2-carboxylic acid (Compound A), each formulated as an SC (suspension concentrate), and various herbicidal components alone and in combination. Forms of compound A were applied on an acid equivalent basis.
(§3) Other herbicidal components were applied on an active ingredient basis and included auxin transport inhibiting (ATI) herbicides chlorflurenol (technical material), chlorflurenol-methyl (technical material), diflufenzopyr (technical material), diflufenzopyr sodium (technical material), flurenol-methyl (technical material) and naptalam (technical material).
(§4) Treatment requirements were calculated based upon the rates being tested, the concentration of active ingredient or acid equivalent in the formulation, and a 12 mL application volume at a rate of 187 L/ha.
(§5) For treatments comprised of formulated and technical compounds, weighed amounts of the technical materials were placed individually in 25 mL glass vials and dissolved in a volume of 97:3 v/v acetone/DMSO to obtain 12× stock solutions, and measured amounts of the formulated compounds were placed individually in 25 mL glass vials and diluted in a volume of 1.5% (v/v) crop oil concentrate or water to obtain 12× stock solutions. […] Application solutions were prepared by adding an appropriate amount of each stock solution (e.g., 1 mL) and diluted to the appropriate final concentrations with the addition of an appropriate amount of an aqueous mixture of 1.5% (v/v) crop oil concentrate so that the final spray solutions contained 1.25% (v/v) crop oil concentrate. When required, additional water and/or 97:3 v/v acetone/DMSO was added to individual application solutions so that the final acetone and DMSO concentrations of the application solutions being compared were 8.1% and 0.25%, respectively.
(§6) All stock solutions and applications solutions were visually inspected for compound compatibility prior to application. Spray solutions were applied to the plant material with an overhead Mandel track sprayer equipped with an 8002E nozzle calibrated to deliver 187 L/ha over an application area of 0.503 m^2 at a spray height of 18 to 20 inches (46 to 50 cm) above average plant canopy height. Control plants were sprayed in the same manner with the solvent blank.
(§7) The treated plants and control plants were placed in a greenhouse as described above and watered by sub-irrigation to prevent wash-off of the test compounds. After approximately 3 weeks, the condition of the test plants as compared with that of the untreated plants was determined visually and scored on a scale of 0 to 100 percent where 0 corresponds to no injury or growth inhibition and 100 corresponds to complete kill. […]

IPOHE = test: Postemergence foliar-applied greenhouse weed control, IPOHE; assay type: in vivo, Ipomoea hederacea Jacq.
From the text: as §1, §2, §3, §4, §5, §6, §7

Structure (SMILES)	Visual Weed Control (%) Obs (LEFCH; 20 DAA, 4.38 gae/ha)	Visual Weed Control (%) Obs (LEFCH; 20 DAA, 8.75 gae/ha)	Visual Weed Control (%) Obs (LEFCH; 21 DAA, 4.38 gae/ha)	Visual Weed Control (%) Obs (LEFCH; 21 DAA, 8.75 gae/ha)	Visual Weed Control (%) Obs (LEFCH; 21 DAA, 17.5 gae/ha)	Visual Weed Control (%) Obs (LEFCH; 22 DAA, 32 gae/ha)	Visual Weed Control (%) Obs (IPOHE; 20 DAA, 4.38 gae/ha)	Visual Weed Control (%) Obs (IPOHE; 20 DAA, 8.75 gae/ha)	Visual Weed Control (%) Obs (IPOHE; 21 DAA, 4.38 gae/ha)	Visual Weed Control (%) Obs (IPOHE; 21 DAA, 8.75 gae/ha)	Visual Weed Control (%) Obs (IPOHE; 21 DAA, 17.5 gae/ha)	Visual Weed Control (%) Obs (IPOHE; 22 DAA, 8 gae/ha)	Visual Weed Control (%) Obs (IPOHE; 22 DAA, 16 gae/ha)	Visual Weed Control (%) Obs (IPOHE; 22 DAA, 32 gae/ha)	Visual Weed Control (%) Obs (LEFCH; 20 DAA, 17.5 gae/ha)	Visual Weed Control (%) Obs (IPOHE; 20 DAA, 17.5 gae/ha)
COc1c(Cl)ccc(-c2nc(C(=O)OCc3ccccc3)c(Cl)c(N)c2F)c1F [Compound A Benzyl Ester]	15%	30%	15%	40%	50%	40%	10%	15%	10%	10%	25%	0%	25%	50%		
COc1c(Cl)ccc(-c2nc(C(=O)O)c(Cl)c(N)c2F)c1F [Compound A Acid, 4-amino-3-chloro-6-(4-chloro-2-fluoro-3-methoxyphenyl)-5-fluoropyridine-2-carboxylic acid]	0%	30%		30%	30%		20%	20%							30%	50%

Reference: patent US20140031217A1, “HERBICIDAL COMPOSITIONS COMPRISING 4-AMINO-3-CHLORO-5-FLUORO-6-(4-CHLORO-2-FLUORO-3-METHOXYPHENYL)PYRIDINE-2-CARBOXYLIC ACID OR A DERIVATIVE THEREOF AND AUXIN TRANSPORT INHIBITORS” (DOW AGROSCIENCES LLC, priority 2012, published 2014)
